According to ChEMBL document CHEMBL1201862, “PubChem BioAssay data set” (2004):
The source made the active and inactive calls.

Key:
Cytochrome P450 3A4 = Cytochrome P450 3A4 (Homo sapiens, UniProt P08684); settings: Potency;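 also: confirmatory qHTS run detecting inhibitors and substrates of CYP3A4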
Estrogen receptor beta = Estrogen receptor beta (Homo sapiens, UniProt Q92731); test: ERβ–SRC-3 coactivator interaction inhibitors, confirmation, orthogonal assay, biochemical, ELISA, streptavidin-HRP readout (AID 1060)
BJ [1] = test: cytotoxicity toward BJ-TERT-LT-ST fibroblasts, dose response, cell-based, RAS-independent, luminescence (AID 1935); type: functional; settings: Homo sapiens;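 also: BJ fibroblasts immortalized with TERT plus LT and ST oncogenes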
BJ [2] = test: cytotoxicity toward Ras-transformed BJeLR fibroblasts, dose response, cell-based, alamar blue fluorescence, cherrypicked samples (AID 2631); type: functional; settings: Homo sapiens;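 also: confirmatory dose-response assay in RAS-dependent BJ fibroblasts engineered with TERT, LT and ST, with cytotoxicity read by fluorescence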
BJ [3] = test: cytotoxicity toward BJ-TERT fibroblasts, dose response, cell-based, RAS-independent, luminescence (AID 1933); type: functional; settings: Homo sapiens
[4] = cytotoxicity toward DRD oncogenic fibroblasts, dose response, cell-based, non-viral oncogenic, luminescence (AID 1934); type: functional; settings: Homo sapiens
[5] = biological target: G-protein coupled receptor 55 (Homo sapiens, UniProt Q9Y2T6); test: GPR55 agonists via beta-arrestin recruitment, primary screen, imaging, U2OS cells, beta-arrestin-GFP redistribution (AID 1961); type: functional
[6] = Vero cell cytotoxicity, dose response, cytotoxicity control for Vif-APOBEC3G degradation inhibitor project, Vero cells (AID 1117358); type: functional; settings: Human immunodeficiency virus 1, Vero
BJ [7] = test: cells; type: functional, cell-based; settings: Homo sapiens
[8] = HepG2 cell cytotoxicity, dose response, cytotoxicity control, plate reader, cherry-pick, antagonist series (AID 743416); type: functional, cell-based
[9] = A549 cell cytotoxicity, dose response, cytotoxicity control, plate reader, cherry-pick, antagonist series (AID 743412); type: functional, cell-based
[10] = MC4R antagonists, dose response, counter-screen for LGR2 antagonist project, cell-based, plate reader, cherry pick (AID 743444); type: functional;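 also: transfected HEK 293 cells stimulated with alpha-MSH peptide; potency of inhibitors of the alpha-MSH evoked signal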
[11] = LGR2 antagonists, dose response, cell-based, HEK293, CRE-luciferase reporter, cherry pick, set 2 (AID 743343); type: functional;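 also: transfected cells were stimulated with diluted bursicon conditioned medium after compound addition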
[12] = inhibitors of Vif binding to APOBEC3G peptide, primary screen, biochemical, TR-FRET, GST-Vif 1-94, biotin-A3G peptide, dose response retest (AID 1117319); type: functional;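 also: TR-FRET signal of purified GST-Vif binding a biotinylated A3G peptide; inhibitors lower the FRET signal by blocking Vif and A3G binding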
[13] = HEK293 cell cytotoxicity, dose response, cytotoxicity control, plate reader, cherry-picked samples (AID 743446); type: functional, cell-based
Cytochrome P450 2D6 = Cytochrome P450 2D6 (Homo sapiens, UniProt P10635);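 also: CYP2D6 member of a cytochrome P450 panel assay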
[14] = cytotoxicity in HEK-293T cells, dose response, cytotoxicity control for BCR NF-kB inhibitor project, luminescence, B-cell screen hits (AID 489021); type: functional, cell-based;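 also: HEK-293T cells carrying an NF-kB luciferase reporter; cells exposed to compound for about 14 hours before viability readout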

Chain of Cytochrome P450 3A4 (P08684 whole entry): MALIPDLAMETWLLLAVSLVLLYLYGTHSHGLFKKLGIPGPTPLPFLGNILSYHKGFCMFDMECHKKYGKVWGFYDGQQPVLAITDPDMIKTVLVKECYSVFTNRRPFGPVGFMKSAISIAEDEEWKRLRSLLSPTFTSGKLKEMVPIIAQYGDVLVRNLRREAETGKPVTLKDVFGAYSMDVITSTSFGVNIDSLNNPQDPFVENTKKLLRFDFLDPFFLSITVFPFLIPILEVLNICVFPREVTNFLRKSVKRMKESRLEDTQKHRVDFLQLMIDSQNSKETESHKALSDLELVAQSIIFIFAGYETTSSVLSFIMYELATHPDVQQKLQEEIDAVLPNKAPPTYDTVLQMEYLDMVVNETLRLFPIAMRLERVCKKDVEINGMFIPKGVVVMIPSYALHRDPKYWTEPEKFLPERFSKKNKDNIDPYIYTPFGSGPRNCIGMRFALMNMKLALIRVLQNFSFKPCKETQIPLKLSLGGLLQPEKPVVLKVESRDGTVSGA
Chain of Estrogen receptor beta (Q92731 whole entry): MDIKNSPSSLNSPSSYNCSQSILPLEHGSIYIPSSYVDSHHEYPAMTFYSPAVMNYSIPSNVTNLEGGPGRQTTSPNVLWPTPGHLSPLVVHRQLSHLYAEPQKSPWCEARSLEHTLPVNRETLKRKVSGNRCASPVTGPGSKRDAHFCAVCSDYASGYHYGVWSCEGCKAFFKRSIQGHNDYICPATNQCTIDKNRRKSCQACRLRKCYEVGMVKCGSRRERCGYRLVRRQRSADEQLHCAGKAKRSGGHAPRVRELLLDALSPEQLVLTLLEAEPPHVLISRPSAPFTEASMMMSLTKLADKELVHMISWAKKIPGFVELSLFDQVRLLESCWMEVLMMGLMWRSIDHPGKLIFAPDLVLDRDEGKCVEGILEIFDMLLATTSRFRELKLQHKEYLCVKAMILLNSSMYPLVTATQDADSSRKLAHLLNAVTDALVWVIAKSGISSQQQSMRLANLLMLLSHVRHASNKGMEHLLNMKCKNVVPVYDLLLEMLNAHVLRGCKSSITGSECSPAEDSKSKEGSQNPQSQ
Chain of Cytochrome P450 2D6 (P10635 whole entry): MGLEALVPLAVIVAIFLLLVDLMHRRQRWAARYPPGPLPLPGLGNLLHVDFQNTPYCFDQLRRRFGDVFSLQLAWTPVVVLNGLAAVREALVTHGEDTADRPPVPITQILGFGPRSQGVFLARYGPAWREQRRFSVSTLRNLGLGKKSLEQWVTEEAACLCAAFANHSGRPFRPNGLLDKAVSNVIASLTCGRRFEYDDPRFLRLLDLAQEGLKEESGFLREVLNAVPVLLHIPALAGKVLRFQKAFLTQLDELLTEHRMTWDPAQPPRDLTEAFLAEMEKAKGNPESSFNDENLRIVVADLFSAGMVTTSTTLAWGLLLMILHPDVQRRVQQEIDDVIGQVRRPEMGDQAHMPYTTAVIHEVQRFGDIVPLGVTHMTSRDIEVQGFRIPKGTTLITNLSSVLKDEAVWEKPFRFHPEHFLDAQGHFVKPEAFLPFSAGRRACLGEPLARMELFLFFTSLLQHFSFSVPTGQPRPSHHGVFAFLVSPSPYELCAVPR
Chain of G-protein coupled receptor 55 (Q9Y2T6 whole entry): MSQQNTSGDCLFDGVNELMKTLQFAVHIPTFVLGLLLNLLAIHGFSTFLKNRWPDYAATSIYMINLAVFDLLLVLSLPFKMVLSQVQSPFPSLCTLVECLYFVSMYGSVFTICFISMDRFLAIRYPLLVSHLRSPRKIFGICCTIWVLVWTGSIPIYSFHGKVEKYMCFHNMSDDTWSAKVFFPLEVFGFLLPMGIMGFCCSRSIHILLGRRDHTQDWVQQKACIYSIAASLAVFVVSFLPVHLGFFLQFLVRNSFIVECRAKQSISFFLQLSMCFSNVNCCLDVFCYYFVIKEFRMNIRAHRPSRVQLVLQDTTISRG

For `COC(=O)c1cccc(C23CC4(C2)[C@H](CN(CC2CCCCC2)[C@@H]4c2ccccc2)C3c2ccc(C(F)(F)F)cc2)c1` (some centres not stated), the AC50 (Cytochrome P450 3A4) was 15.8 µM (inconclusive).

With `O=C(Nc1ccc2c(c1)OCO2)c1cc2ncc(Br)cn2n1` the IC50 (Estrogen receptor beta) was < 0.023 µM (not active).

In the case of `COc1ccccc1-n1cnc2cc(NCc3cccs3)ccc21`, the EC50 (BJ [1]) is reported as 11 µM (inconclusive), the EC50 (BJ [2]) is reported as 0.248 µM (active) and the EC50 (BJ [3]) is reported as 8.39 µM (inconclusive). For the same compound, the EC50 [4] was 4.55 µM (active), the EC50 [5] was 2.87 µM (active) and the CC50 [6] was > 40 µM (active). The EC50 (BJ [7]) was 20.5 µM (active).

For `CN(C)C(=O)c1ccc(COc2ccccc2Br)o1`, the CC50 [6] was > 40 µM (active).

With `COc1cc(C(=O)Oc2cccc(Nc3ncnc4ccccc34)c2)cc(OC)c1OC` the AC50 [8] was > 52 µM (inactive), the AC50 [9] was 51.4 µM (active) and the AC50 [10] was 17.7 µM (active). For the same compound, the AC50 [11] was 14.1 µM (active), the IC50 [12] was > 100 µM (active) and the CC50 [6] was 35.2 µM (active). The AC50 [13] was > 52 µM (inactive).

In the case of `CCOC(=O)[C@]1(C(NC(=O)OC)c2ccccc2)CCCC1=O` (some centres not stated), the AC50 (Cytochrome P450 3A4) is reported as 2.51 µM (inconclusive).

For `O=C(CNC(=O)/C(=C\c1ccccc1)NC(=O)c1ccc(Br)cc1)OCc1ccccc1`, the AC50 (Cytochrome P450 2D6) was 14.1 µM (inconclusive) and the CC50 [6] was > 40 µM (active).

With `CCn1c(S)nc2cc(S(=O)(=O)N3CCCCC3)ccc21` the IC50 [14] was > 80 µM (inactive).

For `COC(=O)c1c(C)cc(OC)cc1O`, the AC50 (Cytochrome P450 3A4) was 39.8 µM (inconclusive).
